What was measured:
[1] = molecular target: T1, Ephrin type-A receptor 6 (Homo sapiens) (UniProt Q9UF33); settings: at 10 µM
T1 sequence (whole entry): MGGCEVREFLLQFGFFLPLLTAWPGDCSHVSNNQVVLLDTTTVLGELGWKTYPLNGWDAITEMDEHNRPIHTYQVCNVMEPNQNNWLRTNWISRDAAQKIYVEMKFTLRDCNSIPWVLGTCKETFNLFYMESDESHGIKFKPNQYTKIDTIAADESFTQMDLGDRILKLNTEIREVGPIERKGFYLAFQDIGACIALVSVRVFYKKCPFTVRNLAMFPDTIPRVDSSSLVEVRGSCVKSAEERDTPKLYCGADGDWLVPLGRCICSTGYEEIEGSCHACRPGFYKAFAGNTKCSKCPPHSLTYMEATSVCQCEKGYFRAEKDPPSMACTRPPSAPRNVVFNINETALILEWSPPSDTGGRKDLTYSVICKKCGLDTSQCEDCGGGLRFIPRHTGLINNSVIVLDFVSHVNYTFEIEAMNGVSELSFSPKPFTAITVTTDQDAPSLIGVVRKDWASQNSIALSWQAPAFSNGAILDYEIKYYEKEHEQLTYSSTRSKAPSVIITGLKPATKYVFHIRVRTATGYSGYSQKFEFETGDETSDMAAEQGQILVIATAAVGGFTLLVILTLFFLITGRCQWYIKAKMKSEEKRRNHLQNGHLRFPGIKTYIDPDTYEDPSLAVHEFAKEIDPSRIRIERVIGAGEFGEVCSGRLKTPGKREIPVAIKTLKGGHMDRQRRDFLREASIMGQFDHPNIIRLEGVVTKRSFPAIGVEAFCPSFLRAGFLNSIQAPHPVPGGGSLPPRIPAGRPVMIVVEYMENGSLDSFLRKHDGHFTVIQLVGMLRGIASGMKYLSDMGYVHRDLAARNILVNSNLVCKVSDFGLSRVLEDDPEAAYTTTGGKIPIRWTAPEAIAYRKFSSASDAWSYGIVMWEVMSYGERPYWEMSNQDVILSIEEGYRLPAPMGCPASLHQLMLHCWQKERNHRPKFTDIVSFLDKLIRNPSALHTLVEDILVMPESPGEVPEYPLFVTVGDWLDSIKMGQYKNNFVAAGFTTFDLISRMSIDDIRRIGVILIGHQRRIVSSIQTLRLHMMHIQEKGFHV

[2] = molecular target: Mitogen-activated protein kinase 4 (Homo sapiens) (UniProt P31152); settings: at 10 µM
[3] = molecular target: T2, Cyclin-dependent kinase-like 5 (Homo sapiens) (UniProt O76039); test: Selectivity interaction (KinomeScan (DiscoverX)) EUB0000092b CDKL5; settings: at 10 µM
T2 sequence (whole entry): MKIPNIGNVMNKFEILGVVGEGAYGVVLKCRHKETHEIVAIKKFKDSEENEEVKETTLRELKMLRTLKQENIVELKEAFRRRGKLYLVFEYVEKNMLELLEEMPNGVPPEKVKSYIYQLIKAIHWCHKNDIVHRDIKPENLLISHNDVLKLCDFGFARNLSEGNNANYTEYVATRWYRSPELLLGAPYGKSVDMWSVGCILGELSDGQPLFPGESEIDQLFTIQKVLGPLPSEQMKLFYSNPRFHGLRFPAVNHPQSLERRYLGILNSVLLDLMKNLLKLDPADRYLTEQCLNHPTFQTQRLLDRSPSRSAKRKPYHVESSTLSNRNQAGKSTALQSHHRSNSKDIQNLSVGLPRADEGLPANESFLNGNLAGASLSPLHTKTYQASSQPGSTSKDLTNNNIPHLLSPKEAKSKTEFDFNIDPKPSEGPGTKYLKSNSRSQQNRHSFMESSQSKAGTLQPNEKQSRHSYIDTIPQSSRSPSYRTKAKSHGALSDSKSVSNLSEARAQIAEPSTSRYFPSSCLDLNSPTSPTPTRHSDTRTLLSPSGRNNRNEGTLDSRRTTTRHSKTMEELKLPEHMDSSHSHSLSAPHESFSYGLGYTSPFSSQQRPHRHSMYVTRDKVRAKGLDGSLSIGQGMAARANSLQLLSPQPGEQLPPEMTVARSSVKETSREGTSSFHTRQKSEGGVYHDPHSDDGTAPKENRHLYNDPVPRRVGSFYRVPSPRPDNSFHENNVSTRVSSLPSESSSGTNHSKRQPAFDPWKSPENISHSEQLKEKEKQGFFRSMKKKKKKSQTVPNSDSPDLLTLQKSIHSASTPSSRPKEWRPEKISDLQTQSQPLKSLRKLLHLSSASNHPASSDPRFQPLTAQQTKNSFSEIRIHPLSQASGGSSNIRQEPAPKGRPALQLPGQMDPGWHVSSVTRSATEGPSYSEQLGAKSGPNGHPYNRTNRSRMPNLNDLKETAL

[4] = molecular target: Dual specificity testis-specific protein kinase 1 (Homo sapiens) (UniProt Q15569); test: Selectivity interaction (KinomeScan (DiscoverX)) EUB0000045b TESK1
[5] = molecular target: T3, Cyclin-dependent kinase 11A (Homo sapiens) (UniProt Q9UQ88); test: Selectivity interaction (KinomeScan (DiscoverX)) EUB0000618a CDK11A; settings: at 10 µM
T3 sequence (whole entry): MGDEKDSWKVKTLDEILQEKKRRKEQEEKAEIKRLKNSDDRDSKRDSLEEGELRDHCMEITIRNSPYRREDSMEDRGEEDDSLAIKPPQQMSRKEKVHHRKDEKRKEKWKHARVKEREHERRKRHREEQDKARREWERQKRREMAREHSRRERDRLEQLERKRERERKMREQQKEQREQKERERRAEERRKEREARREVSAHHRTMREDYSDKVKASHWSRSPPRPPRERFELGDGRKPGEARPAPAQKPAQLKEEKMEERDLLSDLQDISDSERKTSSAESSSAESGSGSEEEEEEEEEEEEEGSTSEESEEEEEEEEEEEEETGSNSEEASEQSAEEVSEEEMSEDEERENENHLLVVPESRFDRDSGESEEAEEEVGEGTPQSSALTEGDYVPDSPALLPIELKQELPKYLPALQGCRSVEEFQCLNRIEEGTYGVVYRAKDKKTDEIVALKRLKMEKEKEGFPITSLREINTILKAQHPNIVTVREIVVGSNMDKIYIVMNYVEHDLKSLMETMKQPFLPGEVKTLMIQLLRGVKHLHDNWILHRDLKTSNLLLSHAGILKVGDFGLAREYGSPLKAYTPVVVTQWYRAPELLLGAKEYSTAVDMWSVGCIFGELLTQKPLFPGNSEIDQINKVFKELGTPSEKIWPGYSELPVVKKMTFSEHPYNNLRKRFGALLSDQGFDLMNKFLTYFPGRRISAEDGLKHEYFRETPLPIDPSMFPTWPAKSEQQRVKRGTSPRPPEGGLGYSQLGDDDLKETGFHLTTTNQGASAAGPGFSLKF

Dual specificity testis-specific protein kinase 1 (Homo sapiens), sequence (Q15569 whole entry, looked up): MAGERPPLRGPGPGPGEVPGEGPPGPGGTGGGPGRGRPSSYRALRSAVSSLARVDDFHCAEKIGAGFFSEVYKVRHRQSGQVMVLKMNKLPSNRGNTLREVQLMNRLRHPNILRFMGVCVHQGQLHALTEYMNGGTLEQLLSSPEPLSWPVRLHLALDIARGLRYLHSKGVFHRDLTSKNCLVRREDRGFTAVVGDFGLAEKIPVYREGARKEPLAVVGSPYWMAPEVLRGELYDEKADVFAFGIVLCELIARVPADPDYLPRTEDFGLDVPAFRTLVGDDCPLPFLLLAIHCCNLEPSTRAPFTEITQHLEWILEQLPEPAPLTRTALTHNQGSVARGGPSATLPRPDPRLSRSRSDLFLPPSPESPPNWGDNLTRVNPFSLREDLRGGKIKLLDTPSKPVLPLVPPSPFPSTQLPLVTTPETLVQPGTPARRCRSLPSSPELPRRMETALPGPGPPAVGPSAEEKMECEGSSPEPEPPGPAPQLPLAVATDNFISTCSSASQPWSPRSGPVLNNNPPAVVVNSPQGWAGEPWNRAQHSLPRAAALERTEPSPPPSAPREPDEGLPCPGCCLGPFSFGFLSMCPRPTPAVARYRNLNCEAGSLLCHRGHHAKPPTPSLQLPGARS
Mitogen-activated protein kinase 4 (Homo sapiens), sequence (P31152 whole entry): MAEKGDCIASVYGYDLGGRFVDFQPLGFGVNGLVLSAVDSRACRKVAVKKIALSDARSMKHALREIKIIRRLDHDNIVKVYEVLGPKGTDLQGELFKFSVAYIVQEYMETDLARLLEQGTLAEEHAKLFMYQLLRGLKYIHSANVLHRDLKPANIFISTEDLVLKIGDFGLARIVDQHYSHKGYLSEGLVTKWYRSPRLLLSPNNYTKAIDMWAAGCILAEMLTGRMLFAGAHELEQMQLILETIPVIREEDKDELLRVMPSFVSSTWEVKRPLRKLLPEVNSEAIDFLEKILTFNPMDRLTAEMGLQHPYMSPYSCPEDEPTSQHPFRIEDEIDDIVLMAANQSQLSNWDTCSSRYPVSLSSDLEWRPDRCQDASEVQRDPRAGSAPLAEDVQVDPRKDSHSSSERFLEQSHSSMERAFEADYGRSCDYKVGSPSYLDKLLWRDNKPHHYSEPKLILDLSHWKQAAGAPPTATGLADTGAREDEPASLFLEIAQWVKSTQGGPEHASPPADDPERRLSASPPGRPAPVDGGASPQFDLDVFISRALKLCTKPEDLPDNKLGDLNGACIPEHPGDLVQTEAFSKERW

CCN(CC)CCCCNc1ncc2cc(-c3cc(OC)cc(OC)c3)c(NC(=O)NC(C)(C)C)nc2n1
% of control [1]: 100%
% of control [2]: 100%

CCC(=O)N1CCN(c2ccc(-n3c(=O)ccc4cnc5ccc(-c6cnc7ccccc7c6)cc5c43)cc2C(F)(F)F)CC1
% of control [3]: 100%

C=CC(=O)Nc1cc(-n2c(=O)ccc3cnc4ccc(-c5ccc(NS(C)(=O)=O)cc5)cc4c32)ccc1C
% of control ([4]; at 1 µM): 94%
% of control ([4]; at 10 µM): 98%

O[C@H]1CC[C@H](Nc2ncc3nc(Nc4c(F)cc(F)cc4F)n([C@H]4CCOC4)c3n2)CC1
% of control [5]: 100%
